Measured values as given in patent US20150291570A1, “Substituted N-(tetrazol-5-yl)- and N-(triazol-5-yl)arylcarboxamide compounds and their use as herbicides” (BASF SE, priority 2012, published 2015).

Legend:
Type in all cases: in vivo
[1] = tested on: Abutilon theophrasti (velvetleaf); assay: Greenhouse post-emergence treatment of Abutilon theophrasti; settings: application rate 1000 g/ha, scale 0 (no damage) to 100 (complete destruction)
Description: (§1) The seeds of the test plants were sown separately for each species. For the post-emergence treatment, the test plants were first grown to a height of 3 to 15 cm, depending on the plant habit, and only then treated with the active ingredients which had been suspended or emulsified in water. For this purpose, the test plants were either sown directly and grown in the same containers, or they were first grown separately as seedlings and transplanted into the test containers a few days prior to treatment. Depending on the species, the plants were kept at 10-25° C. or 20-35° C. The test period extended over 2 to 4 weeks. During this time, the plants were tended, and their response to the individual treatments was evaluated. Evaluation was carried out using a scale from 0 to 100. 100 means no emergence of the plants, or complete destruction of at least the aerial moieties, and 0 means no damage, or normal course of growth. A good herbicidal activity is given at values of at least 70 and a very good herbicidal activity is given at values of at least 85. The plants used in the greenhouse experiments belonged to the following species: [table]

[2] = tested on: Echinochloa crus-galli (barnyard grass); assay: Greenhouse post-emergence treatment of Echinochloa crus-galli; settings: application rate 1000 g/ha, scale 0 to 100
Description: as §1

[3] = tested on: Amaranthus retroflexus L. (pigweed); assay: Greenhouse pre-emergence treatment of Amaranthus retroflexus; settings: application rate 1000 g/ha, scale 0 to 100
Description: The seeds of the test plants were sown separately for each species. For the pre-emergence treatment, the active ingredients, which had been suspended or emulsified in water, were applied directly after sowing by means of finely distributing nozzles. The containers were irrigated gently to promote germination and growth and subsequently covered with transparent plastic hoods until the plants had rooted. This cover caused uniform germination of the test plants, unless this has been impaired by the active ingredients. Depending on the species, the plants were kept at 10-25° C. or 20-35° C. The test period extended over 2 to 4 weeks. During this time, the plants were tended, and their response to the individual treatments was evaluated. Evaluation was carried out using a scale from 0 to 100. 100 means no emergence of the plants, or complete destruction of at least the aerial moieties, and 0 means no damage, or normal course of growth. A good herbicidal activity is given at values of at least 70 and a very good herbicidal activity is given at values of at least 85. The plants used in the greenhouse experiments belonged to the following species: [table]

| SMILES | damage [%] [1] [%] | damage [%] [2] [%] | damage [%] [3] [%] |
| --- | --- | --- | --- |
| CON=C1CCS(=O)(=O)c2ccc(C(=O)Nc3nnnn3C)c(C)c21 [V.A-47] | 100 | 100 | 100 |
| CON=C1CCS(=O)(=O)c2ccc(C(=O)Nc3ncnn3C)c(C)c21 [I.A-47] | 100 | 95 | 70 |
